In US11987579B2 (Duke University, priority 2018, dated 2024):

Key:
Fzd1-GFP = experiment: Frizzled 1-GFP (Fzd1-GFP) internalization assay; type: cell-based; settings: 12.5 μM, 6 h, 37° C., U20S cells stably expressing Fzd1-GFP, confocal microscopy, vs DMSO
Procedure: The Frizzled 1-GFP (Fzd1-GFP) assay was performed following a procedure similar to that previously reported (Chen et al., Biochemistry 2009, 48, 10267). Briefly, U20S cells stably expressing Fzd1-GFP were plated in con local dishes and incubated at 37° C. with 5% CO2. After 24 hours the cells were treated with 12.5 μM of test compound (dissolved in DMSO) or DMSO alone in media as a control for 6 hours at 37° C. and then fixed with 4% paraformaldehyde. The cells were then examined by microscopy using an LSM 510-Meta confocal microscope (Carl Zeiss, Thornwood, N.Y., USA) equipped with 40× and 100×apo chromat objectives. GFP was excited using a 488-nm argon laser line. Images were processed using the LSM software Image Browser.

Wnt/β-catenin signaling = experiment: Wnt3A-stimulated TOPFlash reporter assay; type: cell-based; settings: Homo sapiens; HEK293 stably expressing TOPFlash and Renilla luciferase, Wnt3A-conditioned medium, 0.04 to 10 μM, mean±SEM, n=3; read-out: IC50, inhibition of Wnt/β-catenin signaling in TOPFlash assay
Procedure: Wnt-3A conditioned medium was prepared using L WNT-3A cells (ATCC® CRL-2647™) purchased from ATCC, and was obtained using published protocols (http://www.atcc.org/Products/All/CRL-2647.aspx#culturemethod). HEK293 were stably transfected with p8×TOPFlash, Renilla luciferase plasmid pRL-TK, and pLKO.1. Briefly, stably transfected cells were seeded in 100 μL of cell growth medium (MEM, Sigma, catalog number M4655) supplemented with 10% FBS (Atlanta Biologieals, catalog number S11050), and 1 μg/mL puromycin (Sigma, catalog number P8833), 100 U/mL penicillin-streptomycin (Invitrogen, catalog number 15140122)/well in 96-well plates and incubated in 5% CO2 at 37° C. overnight to 100% confluency. Fifty microliters of Wnt-3A conditioned medium containing the chemical compounds to be tested or DMSO was added to each well. After 6 h treatment, the cell were washed once with PBS and lysed with 55 μL of Passive Lysis Buffer supplied in the Dual-Luciferase Reporter Assay kit (Promega, Catalog number E1960). Twenty-five microliters of cell lysate was used for measuring luciferase activity in a […] plate reader (FluoStar Optima, BMG Labtech, Chicago, Ill.).

[1] = test system: Wnt/β-catenin target gene protein levels; experiment: Evaluation of Wnt signaling inhibition by Western blot; type: cell-based; settings: 5 μM, 18 h; HCT116, SW-480 and CRC240 cells
Procedure: All cells were plated in 6 well-plates and allowed to attach overnight in a 5% CO2 incubator at 37° C. to reach 50-70 percent confluency. The cells were then treated with the indicated compound for 18 hours. Whole cell lysates were prepared by adding 200 μL 1.5× Laemmli sample buffer. Cytosolic lysates were prepared by treating cells with hypotonic buffer and dispersing cell aggregates by drawing the lysate buffer in and out a syringe equipped with 25G×1 needles. The cytosolic lysate was centrifuged at 15,000 rpm for 120 minutes, 200 μL of cytosol lysate was collected and 67 μL of 4× Laemmli sample buffer was added. Whole cell lysates were subjected to Western blot analysis using antibodies to c-Myc (Santa Cruz Biotechnology, catalog number SC-40), Cyclin D1 (Cell Signaling Technology, catalog number 2978), and Survivin (Cell Signaling Technology, catalog number 2808). Cytosol lysate were subjected to Western blot analysis using antibodies to β-catenin (Santa Cruz Biotechnology SC-7963) and Axin2 (Cell Signaling Technology, catalog number 2151). An antibody to β-actin (Santa Cruz Biotechnology, catalog number SC-47798) was used as a loading control.

HCT116 = experiment: Inhibition of cell proliferation by MTS assay, HCT116; type: cell-based; settings: Homo sapiens, HCT-116; HCT116, MTS assay at 72 hr
Procedure: (§1) Colon cancer cell lines SW948, HT-29, HCT116, CRC240, SW480, and DLD-1 were used in the cell proliferation assay. All cell lines, except CRC240, were from ATCC. CRC240, a colorectal cancer patient derived xenograft (PDX) cell line, was obtained from the Hsu lab (Duke University). Generation of CRC240 cell line was previously reported. SW948 cells were cultured in Leibovitz's medium (Gibco, catalog number 21083-027). HT-29 and HCT116 cells were cultured in McCoy's 5A medium (Gibco, catalog number 16600-082). SW480 cells were cultured in MEM medium. CRC240 and DLD-1 cells were cultured in RPMI medium (Gibco, catalog number 11875-093). All media were supplemented with 10% FBS and 100 U/ml penicillin-streptomycin. […] IC50 values calculated using Graphpad Prism.

CRC240 = experiment: Inhibition of cell proliferation by MTS assay, CRC240; type: cell-based; settings: Homo sapiens; CRC240, MTS assay at 72 hr
Procedure: as §1

DLD-1 = experiment: Inhibition of cell proliferation by MTS assay, DLD-1; type: cell-based; settings: Homo sapiens; DLD-1, MTS assay at 72 hr
Procedure: as §1

CRC240 PDX tumors = experiment: CRC240 PDX xenograft tumor study; type: in vivo, NOD/SCID mice; settings: 11 days
Procedure: The development of CRC240 PDX was previously reported (Lu et al. PLoS One 2017, 12, e0169439). Briefly, CRC240 PDX tissue were wash in PBS and then minced in PBS at 150 mg/mL. 200 μL of the PDX tissue suspension were implanted into the flanks of NOD/SCID mice. When PDX tumor volume reached about 100 mm^3, mice were randomized and were orally dosed for 11 days daily byniclosamide, DK419, or the vehicle control (10% 1-methyl-2-pyrrolidmone and 90% PEG300). […] DK419 was dissolved in the vehicle at 0.2 mg/ml and dosed at 1 mg/kg. Tumor size and body weight were measured at day 0, 4, 8, and 11. The day after the last dose, animals were euthanized and tumor samples were collected and processed for Western blot analysis. Briefly, tumor samples were lysed in RIPA Buffer (Thermofisher Scientific, catalog number 89900). Sample lysates were subjected to Western blot using antibodies to Survivin, c-Myc, and Axin2 as described above. β-actin was used as a loading control.

Row | Compound | Fzd1-GFP receptor internalization (green fluorescent internal puncta) (Fzd1-GFP) | IC50 (Wnt/β-catenin signaling) [µM] | levels of Axin2, β-catenin, c-Myc, Cyclin D1 and Survivin by Western blot [1] | IC50 (HCT116) [µM] | IC50 (CRC240) [µM] | IC50 (DLD-1) [µM] | growth of CRC240 PDX tumors (tumor volume) (CRC240 PDX tumors; 1 mg/kg (2.4 μmol/kg) oral once a day, vs vehicle) | body weight (CRC240 PDX tumors; 1 mg/kg oral once a day) | levels of Wnt/β-catenin target genes (Axin2, Survivin, c-Myc) in tumors, Western blot (CRC240 PDX tumors; 1 mg/kg oral once a day, tumors collected day after last dose, vs vehicle) | growth of CRC240 PDX tumors (tumor volume) (CRC240 PDX tumors; 72 mg/kg (220 μmol/kg) oral once a day, vs vehicle) | body weight (CRC240 PDX tumors; 72 mg/kg oral once a day)
1 | O=C(Nc1ccc(C(F)(F)F)cc1)c1cc(Cl)cc2nc(C(F)(F)F)[nH]c12 [DK419, 6-chloro-2-(trifluoromethyl)-N-(4-(trifluoromethyl)phenyl)-1H-benzo[d]imidazole-4-carboxamide] | robust punctate pattern | 0.19 ± 0.08 | reduced levels | 0.23 | 0.31 | 0.35 | inhibited the growth of CRC240 PDX tumors compared to vehicle control | Neither DK419 nor niclosamide produced a change in body weight | reduced significantly |  | 
2 | O=C(Nc1ccc([N+](=O)[O-])cc1Cl)c1cc(Cl)ccc1O [Niclosamide, reference compound] | robust punctate pattern | 0.45 ± 0.14 | reduced levels | 0.31 | 0.68 | 1.78 |  |  |  | inhibited tumor growth | Neither DK419 nor niclosamide produced a change in body weight
